# Where two headings read alike, the source gives them in different places.
# What was measured:
# [1] = Pharmacokinetic study in rat plasma after oral administration of QJYQ (UHPLC-sMRM); format: in vivo, Sprague-Dawley rats
# Method: Exion LC AD tandem Blueline 3500 triple quadrupole mass spectrometer (AB SCIEX, Framingham, MA, United States) was used to thirty-three compounds in rat plasma. […] The whole detailed parameters of sMRM were obtained in Supplementary Table S1.
# Rat plasma (100 μL) was mixed with 10% formic acid (10 μL) and vortexed for 1 min at room temperature. ISs (10 μL) and methanol/acetonitrile (1/1, v/v) (400 μL) were added and vortexed for 5 min, then centrifuged for 10 min at 14,000 rpm and 4°C. The transported supernatant was condensed to dryness under the flow of nitrogen gas. The dried residue was reconstituted with 70% methanol (100 μL) by vortex-mixing for 5 min and centrifuging at 14,000 rpm for 10 min. Last, 2 μL of the solution were injected into the UHPLC-sMRM system.
# The pharmacokinetic study was approved by the Animal Ethics Committee of Tianjin University of Traditional Chinese Medicine (TCM-LAEC2021228). Ten male Sprague-Dawley rats (weight 220–240 g) was kept at the animal center of Tianjin University of Traditional Chinese Medicine (Tianjin, China). […] The sample was transferred right away following a 10 min period of centrifugation at 7000 rpm and 4°C. All plasma samples were frozen and stored at −80°C.
# All the pharmacokinetic parameters were calculated using the DAS 1.0 software (Drug and Statistics 1.0, Medical College of Wannan, China). Pharmacokinetic parameters include the maximum drug concentration in plasma (Cmax), the time to achieve maximum drug concentration (Tmax), the area under the plasma concentration-time curve (AUC), elimination half-life (T1/2), and mean residence time (MRT). The pharmacokinetic parameters were computed using the non-compartmental model. All data are expressed as mean ± standard deviation (SD). GraphPad Prism 8.0 (GraphPad Software Inc., La Jolla, CA, United States) software was used to draw the drug-time curve.
# [2] = Stability of the working solution (4°C for 1 month); format: physicochemical
# [3] = Stability of analytes in rat plasma (auto-sampler, freeze-thaw, room temperature, long-term); conditions: for Room temperature for 24 h Accuracy (%): room temperature 24 h; for Freeze thaw cycles Accuracy (%): three freeze-thaw cycles; for Autosampler for 24 h Accuracy (%): autosampler 24 h
# Method: The stability of analytes in plasma was evaluated by analyzing 4 QC samples (n = 6). The stability was included auto-sampler stability (keeping the sample in auto-sampler for 24 h), three times of freeze-thaw cycles stability (freezing cycle at −80°C, thawing cycle at room temperature), room temperature stability (storing samples at room temperature for 24 h), long-term stability (storing samples at −80°C for 1 month). […] Accompanying curve was established when testing the sample, calculate and compare the ratio of the actual measured concentration to the theoretical concentration, expressed in accuracy and RSD.
# [4] = male, Sprague-Dawley, rat plasma, oral QJYQ 3.15 g/kg, n = 8, mean ± SD
# [5] = male, Sprague-Dawley, rat plasma, oral QJYQ 3.15 g/kg, n = 8, mean ± SD, read-out: AUC(0-t)
# [6] = male, Sprague-Dawley, rat plasma, oral QJYQ 3.15 g/kg, n = 8, mean ± SD, read-out: AUC(0-∞)
# [7] = male, Sprague-Dawley, rat plasma, oral QJYQ 3.15 g/kg, n = 8, mean ± SD, read-out: Cmax
# [8] = male, Sprague-Dawley, rat plasma, oral QJYQ 3.15 g/kg, n = 8, mean ± SD, read-out: MRT (0-∞)
# [9] = male, Sprague-Dawley, rat plasma, oral QJYQ 3.15 g/kg, n = 8, mean ± SD, read-out: MRT(0-t)
# [10] = male, Sprague-Dawley, rat, in vivo, po, 3.15 g/kg
smiles,measurement,setting,value
COc1ccc(/C=C/C(=O)O)cc1O [isoferulic acid],half-life,[1]; [4],4.68 ± 0.41 h
same,AUC(0-t),[1]; [5],347 ± 120 ng·h/mL
same,AUC(0-inf),[1]; [6],354 ± 132 ng·h/mL
same,Cmax,[1]; [7],235 ± 81.1 ng/mL
same,MRT inf,[1]; [8],5.85 ± 3.26 h
same,MRT last,[1]; [9],5.25 ± 2.87 h
same,Working solution Accuracy (%),[2]; 50 ng/mL,100.0%
same,Working solution Accuracy (%),[2]; 100 ng/mL,95.7%
same,Working solution Accuracy (%),[2]; 200 ng/mL,104.0%
same,Room temperature for 24 h Accuracy (%),[3]; 50 ng/mL,108.0%
same,Freeze thaw cycles Accuracy (%),[3]; 50 ng/mL,95.7%
same,−80°C for 1month Accuracy (%),"[3]; 50 ng/mL, −80°C 1 month",90.8%
same,Autosampler for 24 h Accuracy (%),[3]; 100 ng/mL,88.3%
same,Room temperature for 24 h Accuracy (%),[3]; 100 ng/mL,87.5%
same,Freeze thaw cycles Accuracy (%),[3]; 100 ng/mL,86.2%
same,−80°C for 1month Accuracy (%),"[3]; 100 ng/mL, −80°C 1 month",85.5%
same,Autosampler for 24 h Accuracy (%),[3]; 200 ng/mL,102.0%
same,Room temperature for 24 h Accuracy (%),[3]; 200 ng/mL,87.2%
same,Autosampler for 24 h Accuracy (%),[3]; 500 ng/mL,104.0%
same,Freeze thaw cycles Accuracy (%),[3]; 500 ng/mL,95.6%
same,−80°C for 1month Accuracy (%),"[3]; 500 ng/mL, −80°C 1 month",106.0%
CC1(C)[C@@H](O[C@H]2O[C@H](C(=O)O)[C@@H](O)[C@H](O)[C@H]2O[C@@H]2O[C@H](C(=O)O)[C@@H](O)[C@H](O)[C@H]2O)CC[C@]2(C)[C@H]3C(=O)C=C4[C@@H]5C[C@@](C)(C(=O)O)CC[C@]5(C)CC[C@@]4(C)[C@]3(C)CC[C@@H]12 [glycyrrhizic acid],Tmax,"[1]; male, Sprague-Dawley, rat, plasma, po, 3.15 g/kg, rat plasma, oral QJYQ 3.15 g/kg, n = 8, mean ± SD, read-out: Tmax",< 0.5 h
same,half-life,[1]; [4],1.67 ± 0.16 h
same,AUC(0-t),[1]; [5],1110 ± 138 ng·h/mL
same,AUC(0-inf),[1]; [6],1120 ± 228 ng·h/mL
same,Cmax,[1]; [7],359 ± 147 ng/mL
same,MRT inf,[1]; [8],5.38 ± 1.16 h
same,MRT last,[1]; [9],5.3 ± 0.28 h
same,Working solution Accuracy (%),[2]; concentration 50 ng/mL,88.5%
same,Working solution Accuracy (%),[2]; concentration 100 ng/mL,104.0%
same,Working solution Accuracy (%),[2]; concentration 500 ng/mL,87.0%
same,Autosampler for 24 h Accuracy (%),[3]; concentration 12.5 ng/mL,94.4%
same,Autosampler for 24 h Accuracy (%),[3]; concentration 50 ng/mL,100.0%
same,Autosampler for 24 h Accuracy (%),[3]; concentration 100 ng/mL,94.3%
same,Autosampler for 24 h Accuracy (%),[3]; concentration 500 ng/mL,94.5%
same,Room temperature for 24 h Accuracy (%),[3]; concentration 50 ng/mL,94.6%
same,Room temperature for 24 h Accuracy (%),[3]; concentration 100 ng/mL,107.0%
same,Room temperature for 24 h Accuracy (%),[3]; concentration 500 ng/mL,89.9%
same,Freeze thaw cycles Accuracy (%),[3]; concentration 12.5 ng/mL,84.6%
same,Freeze thaw cycles Accuracy (%),[3]; concentration 500 ng/mL,97.0%
same,−80°C for 1month Accuracy (%),"[3]; −80°C for 1 month, concentration 12.5 ng/mL",85.6%
same,−80°C for 1month Accuracy (%),"[3]; −80°C for 1 month, concentration 50 ng/mL",89.7%
same,−80°C for 1month Accuracy (%),"[3]; −80°C for 1 month, concentration 100 ng/mL",96.2%
same,−80°C for 1month Accuracy (%),"[3]; −80°C for 1 month, concentration 500 ng/mL",93.4%
O=C(O)[C@H]1O[C@@H](Oc2cc(O)c3c(=O)cc(-c4ccc(O)cc4)oc3c2)[C@H](O)[C@@H](O)[C@@H]1O [apigenin-7-O-glucuronide],AUC(0-t),"[1]; rat, in vivo, po, 3.15 g/kg",14603.11 ± 7523.95 ng·h/mL
same,AUC(0-∞),"[1]; rat, in vivo, po, 3.15 g/kg",15028.42 ± 7667.50 ng·h/mL
same,Cmax,"[1]; rat, in vivo, po, 3.15 g/kg",167.50 ± 108.49 ng/mL
same,MRT,"[1]; rat, in vivo, po, 3.15 g/kg",greater than 8 h
same,MRT (0-∞),"[1]; rat, in vivo, po, 3.15 g/kg",8.62 ± 1.65 h
same,MRT(0-t),"[1]; rat, in vivo, po, 3.15 g/kg",8.39 ± 1.62 h
same,T1/2,"[1]; rat, in vivo, po, 3.15 g/kg",4.17 ± 1.51 h
same,Tmax,"[1]; rat, in vivo, po, 3.15 g/kg",4.65 ± 2.79 h
same,Working solution Accuracy (%),[2]; 1.56 ng/mL,83.6%
same,Working solution Accuracy (%),[2]; 12.5 ng/mL,112.0%
same,Working solution Accuracy (%),[2]; 100 ng/mL,88.5%
same,Working solution Accuracy (%),[2]; 500 ng/mL,93.2%
same,Autosampler for 24 h Accuracy (%),[3]; 1.56 ng/mL,103.0%
same,Room temperature for 24 h Accuracy (%),[3]; 1.56 ng/mL,114.0%
same,Freeze thaw cycles Accuracy (%),[3]; 1.56 ng/mL,109.0%
same,−80°C for 1month Accuracy (%),"[3]; 1.56 ng/mL, −80°C 1 month",104.0%
same,Autosampler for 24 h Accuracy (%),[3]; 12.5 ng/mL,93.2%
same,Room temperature for 24 h Accuracy (%),[3]; 12.5 ng/mL,92.2%
same,Freeze thaw cycles Accuracy (%),[3]; 12.5 ng/mL,85.6%
same,−80°C for 1month Accuracy (%),"[3]; 12.5 ng/mL, −80°C 1 month",86.0%
same,Autosampler for 24 h Accuracy (%),[3]; 100 ng/mL,94.1%
same,Room temperature for 24 h Accuracy (%),[3]; 100 ng/mL,90.4%
same,Freeze thaw cycles Accuracy (%),[3]; 100 ng/mL,86.4%
same,−80°C for 1month Accuracy (%),"[3]; 100 ng/mL, −80°C 1 month",85.0%
same,Autosampler for 24 h Accuracy (%),[3]; 500 ng/mL,85.5%
same,Room temperature for 24 h Accuracy (%),[3]; 500 ng/mL,104.0%
same,Freeze thaw cycles Accuracy (%),[3]; 500 ng/mL,88.3%
same,−80°C for 1month Accuracy (%),"[3]; 500 ng/mL, −80°C 1 month",108.0%
O=C1C[C@@H](c2ccc(O[C@@H]3O[C@H](CO)[C@@H](O)[C@H](O)[C@H]3O)cc2)Oc2cc(O)ccc21 [liquiritin],AUC(0-inf),[1]; [10],16.4 ± 5.06 ng·h/mL
same,AUC(0-t),[1]; [10],16.3 ± 5.11 ng·h/mL
same,Cmax,[1]; [10],7.08 ± 2.25 ng/mL
same,MRT inf,[1]; [10],6.8 ± 1.19 h
same,MRT last,[1]; [10],6.4 ± 0.98 h
same,Tmax,"[1]; male, Sprague-Dawley, rat, in vivo, po, 3.15 g/kg, Tmax",0.52 ± 0.1 h
same,T1/2,"[1]; rat plasma, oral QJYQ 3.15 g/kg, n = 8, mean ± SD",4.30 ± 3.09 h
same,Working solution Accuracy (%),[2]; 1.56 ng/mL,99.4%
same,Working solution Accuracy (%),[2]; 12.5 ng/mL,94.1%
same,Working solution Accuracy (%),[2]; 100 ng/mL,100.0%
same,Working solution Accuracy (%),[2]; 500 ng/mL,86.6%
same,Autosampler for 24 h Accuracy (%),[3]; 1.56 ng/mL,84.0%
same,Room temperature for 24 h Accuracy (%),[3]; 1.56 ng/mL,111.0%
same,Freeze thaw cycles Accuracy (%),[3]; 1.56 ng/mL,110.0%
same,Autosampler for 24 h Accuracy (%),[3]; 12.5 ng/mL,108.0%
same,Room temperature for 24 h Accuracy (%),[3]; 12.5 ng/mL,94.4%
same,−80°C for 1month Accuracy (%),"[3]; 12.5 ng/mL, −80°C 1 month",94.1%
same,Autosampler for 24 h Accuracy (%),[3]; 100 ng/mL,94.1%
same,Room temperature for 24 h Accuracy (%),[3]; 100 ng/mL,90.6%
same,Freeze thaw cycles Accuracy (%),[3]; 100 ng/mL,85.8%
same,−80°C for 1month Accuracy (%),"[3]; 100 ng/mL, −80°C 1 month",103.0%
same,Autosampler for 24 h Accuracy (%),[3]; 500 ng/mL,91.2%
same,Room temperature for 24 h Accuracy (%),[3]; 500 ng/mL,89.3%
same,Freeze thaw cycles Accuracy (%),[3]; 500 ng/mL,87.0%
same,−80°C for 1month Accuracy (%),"[3]; 500 ng/mL, −80°C 1 month",108.0%
